Source: patent US9862730B2, “Imidazothiadiazole derivatives as protease activated receptor 4 (PAR4) inhibitors for treating platelet aggregation” (BRISTOL-MYERS SQUIBB COMPANY, priority 2012, dated 2018)

Columns and labels:
[1] = system: platelet aggregation in human PRP; assay: Tissue factor-induced platelet aggregation assay; format: cell-based; settings: tissue factor and CaCl2
Text: Example E is a tissue factor-induced platelet aggregation assay. The conditions in this assay mimic the physiological events during thrombus formation. In this assay, platelet aggregation in human PRP was initiated by the addition of tissue factor and CaCl2. Tissue factor, the initiator of the extrinsic coagulation cascade, is highly elevated in human atherosclerotic plaque. Exposure of blood to tissue factor at the atherosclerotic site triggers a robust generation of thrombin and induces the formation of obstructive thrombi.
The platelet rich plasma was isolated by centrifugation at 170 g for 14 minutes.
The ability of PAR1 or PAR4 antagonist to inhibit platelet aggregation induced by endogenous thrombin was tested in a tissue factor driven aggregation assay. The compounds were pre-incubated with PRP for 2 min (FIGS. 3 and 4). Aggregation is initiated by addition of CaCl2 and recombinant human tissue factor, which results in the generation of thrombin through activation of the coagulation pathway in the plasma. Anticoagulant agents such as corn trypsin inhibitor (Haematologic Technologies, Essex Junction, Vt.) at 50 μg/ml and PEFABLOC® FG (Centerchem, Norwalk, Conn.) are also added to the sample to prevent fibrin clot formation during the time of the study. Platelet aggregation is monitored using standard instrumentation including optical aggregometer or impedance aggregometer.

PAR4 = PAR4 (Homo sapiens (Human), UniProt Q96RI0); assay: FLIPR assay in PAR4-expressing HEK293 cells (PAR4 antagonist activity, calcium mobilization); format: cell-based; settings: FLIPR assay as described in Example A
How it was run: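 HEK293 cells stably expressing human PAR4 (also endogenous PAR1) in HBSS/10 mM HEPES, 0.67% DMSO final. Compound added and read for agonist activity, then 30 min room temperature before PAR4 agonist peptide; intracellular calcium mobilization monitored by FDSS/FLIPR.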

[2] = system: electrolytic injury-induced carotid artery thrombosis; assay: Cynomolgus monkey electrolytic injury-induced carotid artery thrombosis model; format: in vivo; settings: oral, dose response
Text: The efficacy of the PAR4 antagonists of the present invention in preventing thrombosis can also be measured in a variety of in vivo assays. Exemplary mammals that can provide models of thrombosis and hemostasis to test the effectiveness of the PAR4 antagonists of the present invention as antithrombotic agents include, but are not limited to, guinea pigs and primates. Relevant efficacy models include, but are not limited to, electrolytic injury-induced carotid artery thrombosis, FeCl3-induced carotid artery thrombosis and arteriovenous-shunt thrombosis. […]
On the day of the study, compounds or vehicles were administered orally at 1 to 2 hours before the experiment. […] Blood pressure and heart rate were monitored to maintain normal vital signs.
Carotid blood flow was measured with an appropriately sized TRANSONIC® flow probe and a TRANSONIC® perivascular flowmeter (TS420 Model, Transonic Systems Inc., Ithaca, N.Y.). It was continuously recorded over a 90-min period to monitor thrombosis-induced occlusion. Integrated carotid blood flow was measured by the area under the flow-time curve. It was expressed as percent of total control carotid blood flow, which would result if control blood flow had been maintained continuously for 90 min. […]

PAR4, sequence (Q96RI0 18-385): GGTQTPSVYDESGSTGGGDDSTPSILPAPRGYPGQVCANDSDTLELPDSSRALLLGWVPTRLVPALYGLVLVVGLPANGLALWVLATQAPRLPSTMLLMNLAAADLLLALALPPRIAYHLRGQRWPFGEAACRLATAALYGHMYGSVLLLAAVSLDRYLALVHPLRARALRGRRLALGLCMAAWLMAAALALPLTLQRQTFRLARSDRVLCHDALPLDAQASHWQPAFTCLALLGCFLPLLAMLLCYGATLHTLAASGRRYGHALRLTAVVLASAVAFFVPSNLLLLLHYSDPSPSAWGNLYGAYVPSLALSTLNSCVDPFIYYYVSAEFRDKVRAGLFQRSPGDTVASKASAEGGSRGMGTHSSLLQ

Structure (SMILES) | inhibition of tissue factor-induced platelet aggregation (FIGS. 3 and 4) [1] | IC50 (PAR4) [nM] | antithrombotic efficacy / inhibition of thrombus formation (FIG. 5) [2]
COc1cc(OC)c2cc(-c3cn4nc(OC)sc4n3)oc2c1 [Example 73] | effective inhibition | 0.99 | 
COc1cc(OCc2cccc(OCc3ccccc3)c2)c2cc(-c3cn4nc(OC)sc4n3)oc2c1 [Example 205, 6-(4-((3-(Benzyloxy)benzyl)oxy)-6-methoxybenzofuran-2-yl)-2-methoxyimidazo[2,1-b][1,3,4]thiadiazole] |  |  | demonstrating the in vivo antithrombotic efficacy
